We go through three molecules from paper PMC5958115, “A novel small molecule chaperone of rod opsin and its potential therapy for retinal degeneration” (Nature Communications, 2018).

In one data set the target is mouse P23H-opsin mutant (Mus musculus, UniProt P15409, P23H). Kind of data set: β-Gal fragment complementation assay: rescue of P23H opsin transport from ER to plasma membrane, U2OS(PLC-EA/P23H-PK) cells. In kind it is cell-based. The following applies: for β-Gal fragment complementation assay Activity score (%) Max (fit) / Efficacy: 24 h, 5 µM 9-cis-retinal = 100%, from curve fitting; for dependence of activity on light: cells exposed to light vs dark; for Efficacy (%): normalized to 5 µM 9-cis-retinal. An excerpt:
U2OS(PLC-EA/P23H-PK) cells. A U2OS stable cell line was generated by DiscoveRx, Inc. (Fremont, CA, USA) for the β-Gal fragment complementation assay used in the small-molecule HTS for rescue of P23H-opsin transport. U2OS cells that continually express P23H-PK and PLC-EA fusion proteins were generated. Briefly, this small subunit of β-Gal (PK fragment) was fused to the C-terminal of the mouse P23H-opsin mutant, while the large EA fragment, a subunit of β-Gal, was fused with PLC, a plasma membrane-anchored peptide. Both constructs were subcloned by DicoveRx, Inc. and transferred into U2OS cells by viral infections. Positive clones were selected under treatment with hygromycin and geneticin.
Briefly, U2OS(PLC-EA /P23H-PK) cells were suspended in assay medium at 3 × 10^5 cells mL^−1. The cell suspension was dispensed into 384-well plates (Greiner Bio-one, Monroe, NC, USA) at 20 µL per well, with a Multidrop dispenser (Thermo Scientific, Waltham, MA, USA). Plates with cells then were centrifuged at 200×g for 15 s before incubation at 37 °C with 5% CO2. Plates were removed 24 h later for treatment with tested compounds. A total of 248 plates containing 79,080 compounds from three small-molecule libraries were paired with an equal number of assay plates with cultured cells. Owing to a limited capacity, these plates were assayed in seven batches. An average of 56.3 nL of 10 mM compound in DMSO was dispensed into each well from column 3 to 22 of paired assay plates using a 50 nL 384-pintool system, such that the final concentration of each compound was 22.52 µM on average. […] Each assay plate was shaken for 5 s before further incubation at 37 °C with 5% CO2. After 24 h, assay plates were removed, and each well was incubated with 25 µL of 1× Gal-Screen assay buffer (1:24 substrate-buffer ratio). Assay plates were incubated in the dark for 60–90 min, and luminescence was read from each assay plate with an Envision microplate reader (PerkinElmer) during a 0.1 s per well integration time. The mean and s.d. of readouts in column 2 of each plate were calculated as Mean0% and SD0%, whereas the average and s.d. of readouts in column 23 were calculated as Mean100% and SD100%. Eq. 1: Activity scores (%) = (RLUcp − Mean0%)/(Mean100% − Mean0%) × 100%, where RLUcp is the relative luminescence unit derived for cells treated with a compound. Eq. 2: Z′-factor = 1–3 × (SD0% + SD100%)/(Mean100% − Mean0%)[32]; Eq. 3: signal-to-background (S/B) ratio = Mean100%/Mean0%. Activities of all tested compounds were registered with their compound ID by GeneData Screener (Genedata, Basel, Switzerland) and Pipeline Pilot software (Accelrys, San Diego, CA, USA). Hits, cherry-picked from a separate stock dose-dependent activity test, were selected with an activity score cutoff at 20%. Activity of each hit was tested again with the β-Gal fragment complementation assay in a 10-dose series with each dose tested in triplicate. The 10 doses tested were 80, 40, 20, 10, 5, 2.5, 1.25, 0.625, 0.313, and 0.156 µM. Dose-dependent curves of each hit compound were fitted with GeneData and Origin software.
Detailed synthetic steps are described in Supplementary Note and Supplementary Fig. 9. […] YC-002-YC-021 were purchased from commercial vendors including Enamine LLC (Monmouth Jct., NJ, USA), Matrix Scientific (Columbia, SC, USA) and Tokyo Chemical Industry Co., Ltd. (Portland, OR, USA). […] Activities of YC compounds were tested with the β-Gal fragment complementation assay, as described in a prior section. All YC compounds were tested at 10 doses, each in triplicate: 80, 40, 20, 10, 5, 2.5, 1.25, 0.625, 0.313, and 0.156 µM.

A further data set concerns the target T1, mouse P23H opsin (Mus musculus, UniProt P15409, P23H).
T1 construct: expressed in transfected cells
As to the kind of experiment: High-content imaging analysis of P23H opsin immunostaining in NIH3T3-(P23H opsin/GFP) cells. Format: cell-based. Here is the method:
To characterize the effect of active compounds on the localization of P23H-mutant opsin in mammalian cells, an image-based assay was used with cells immunostained for WT or P23H-mutant opsin protein[18]. Briefly, NIH3T3-(P23H opsin/GFP) or NIH3T3-(WT-opsin/GFP) cells were seeded at 5000 cells per well in a 384-well cell-carrier plate (PerkinElmer) and incubated at 37 °C with 5% CO2 for 2 h. Cells were treated with compounds as described for the β-Gal fragment complementation assay and incubated in assay medium for 24 h. The assay medium then was aspirated, and cells were fixed with 4% paraformaldehyde at 20 µL per well for 20 min at RT. Cells were immunostained in one of two ways: cell membranes were either permeabilized with 0.1% Triton X-100 for 15 min or left intact and then were incubated with 10% goat serum (Life Technologies). To detect opsin on the cell plasma membrane only, intact cells were immunostained with 20 µL per well of 20 µg mL^−1 B6-30 anti-rhodopsin antibody that recognizes the N-terminal epitope on the extracellular side of rhodopsin. To detect total opsin, cells were permeabilized with Triton X-100 and immunostained with 50 µg mL^−1 1D4 anti-rhodopsin antibody specific for the C-terminal epitope on the intracellular side of rhodopsin. Opsin immunostaining was visualized by incubating cells with 5 µg mL^−1 Cy3-conjugated goat anti-mouse IgG antibody. Three washes with phosphate-buffered saline (PBS: 10 mM Na2HPO4, 1.8 mM KH2PO4, pH 7.4, 137 mM NaCl, and 2.7 mM KCl) were performed between each step of incubation with antibody. In the last wash with PBS, DAPI was added to each well at 300 nM. Fluorescence images were obtained with the Operetta High Content Imaging System (PerkinElmer) using a ×20 long objective. Five fields were taken of each well for cell images using three channels for fluorescence: GFP (100 ms), Cy3 (300 ms), and DAPI (50 ms). Images were analyzed with Acapella software from the Columbus data storage and analysis system (PerkinElmer)[18]. For cells immunostained with opsin on the non-permeabilized cell membrane only, an average of total fluorescence intensity of Cy3 per cell was used to quantify opsin in each well of the 384-well plate. For cells immunostained with opsin in permeabilized whole cells, an average ratio of Cy3 intensity on the cell plasma membrane (PM) to that of the entire cell (opsin ratio PM-to-total) was calculated for each well of a 384-well plate to quantify opsin transport to the plasma membrane. The plasma membrane was defined within ± 5% of the cell border.

A further data set concerns NIH3T3 cells. As to the kind of experiment: Cell number in high-content imaging of NIH3T3 cells. Format: cell-based, mouse. The procedure: To characterize the effect of active compounds on the localization of P23H-mutant opsin in mammalian cells, an image-based assay was used with cells immunostained for WT or P23H-mutant opsin protein[18]. Briefly, NIH3T3-(P23H opsin/GFP) or NIH3T3-(WT-opsin/GFP) cells were seeded at 5000 cells per well in a 384-well cell-carrier plate (PerkinElmer) and incubated at 37 °C with 5% CO2 for 2 h. Cells were treated with compounds as described for the β-Gal fragment complementation assay and incubated in assay medium for 24 h. The assay medium then was aspirated, and cells were fixed with 4% paraformaldehyde at 20 µL per well for 20 min at RT. […] Fluorescence images were obtained with the Operetta High Content Imaging System (PerkinElmer) using a ×20 long objective. Five fields were taken of each well for cell images using three channels for fluorescence: GFP (100 ms), Cy3 (300 ms), and DAPI (50 ms). Images were analyzed with Acapella software from the Columbus data storage and analysis system (PerkinElmer)[18]. For cells immunostained with opsin on the non-permeabilized cell membrane only, an average of total fluorescence intensity of Cy3 per cell was used to quantify opsin in each well of the 384-well plate. […]

Setting [1] is: 24 h preincubation, activity standardized to 5 µM 9-cis-retinal as 100%, Hill fit, read-out: β-Gal fragment complementation assay Activity score (%) EC50.
[2] abbreviates: cell-surface immunostaining, non-permeabilized, Fig. 2j, read-out: EC50, opsin on the plasma membrane (Opsin INT).
Setting [3] is: ratio of P23H rod opsin fluorescence on plasma membrane to whole cell.
[4] abbreviates: ratio of P23H rod opsin fluorescence on plasma membrane to whole cell, read-out: Immunostaining HCS MEM-Total ratio EC50.

Like-named read-outs stand apart in the source and are kept apart here.

On to `CC1=C(/C=C/C(C)=C\C=C\C(C)=C\C=O)C(C)(C)CCC1` [9-cis-retinal, reference compound], for which, on mouse P23H-opsin mutant, the “β-Gal fragment complementation assay Activity score (%) Max (fit) / Efficacy” value is 159% and the “dependence of activity on light” value was “required that cells be incubated in the dark”. Also, the EC50 at mouse P23H-opsin mutant (setting [1]) was determined as 2.7 µM. At mouse P23H opsin (Fig. 2j), the “A1 (low plateau), Opsin INT” value is 219 and the “A2 (high plateau), Opsin INT” value was determined as 275. Besides, on mouse P23H opsin (Fig. 2l), the “A1 (low plateau), Opsin ratio PM-to-total” value turned out to be 0.167 and the “A2 (high plateau), Opsin ratio PM-to-total” value was 0.186. On mouse P23H opsin (Fig. 2n), the “A1 (low plateau), Opsin ratio ER-to-total” value is 0.240 and the “A2 (high plateau), Opsin ratio ER-to-total” value worked out at 0.255. For the same molecule, on mouse P23H opsin (setting [2]), the EC50 was found to be 0.377 µM. Further, the “Immunostaining HCS MEM-Total ratio Max (fit)” value at mouse P23H opsin (setting [3]) is given as 0.019. Further, on mouse P23H opsin (whole-cell immunostaining, Fig. 2l, read-out: EC50, Opsin ratio PM-to-total), the EC50 was 1.21 µM. The “concentration that euthanized most cells” value in the data set with NIH3T3 cells (24 h treatment) was “higher than 10 µM”.

Consider `O=C(CCCCCN1C(=O)c2cccc3cccc(c23)C1=O)NO` [Scriptaid, reference compound], for which, at mouse P23H-opsin mutant, the “activity in rescuing P23H-opsin transport (in words)” value was “strong activity in rescuing P23H opsin transport” and the “β-Gal fragment complementation assay Activity score (%) Max (fit) / Efficacy” value was 98.2%. Besides, the EC50 at mouse P23H-opsin mutant (setting [1]) amounted to 3.09 µM. The “Immunostaining HCS MEM-Total ratio Max (fit)” value at mouse P23H opsin (setting [3]) is 0.070. Further, the EC50 on mouse P23H opsin (setting [4]) worked out at 0.38 µM.

Turning to `O=C1OCC(c2ccc(Cl)s2)=C1c1cccs1` [YC-001], the “β-Gal fragment complementation assay Activity score (%) Max (fit) / Efficacy” value on mouse P23H-opsin mutant amounted to 310%. The EC50 on mouse P23H-opsin mutant (setting [1]) was 8.7 µM; on mouse P23H-opsin mutant (modifications linked to C3 of the furan-2(5H)-one ring, 10 doses 0.156-80 µM, read-out: Potency EC50), 8.39 µM; at mouse P23H opsin (setting [2]), 3.22 µM; at mouse P23H opsin (setting [4]) it was 2.75 µM; on mouse P23H opsin (whole-cell immunostaining, Fig. 2n, read-out: EC50, Opsin ratio ER-to-total), 2.14 µM. Besides, the “efficacy, % of the control activity score” value on mouse P23H-opsin mutant (HTS hits, variability between experiments) is recorded as 150–310%. On mouse P23H-opsin mutant (YC-001 dose series together with 5 µM 9-cis-retinal), the “effect of co-treatment with 9-cis-retinal” value is “No additive effect”. For the same molecule, the “dependence of activity on light” value on mouse P23H-opsin mutant is “not affected”. The “Efficacy (%)” value on mouse P23H-opsin mutant (modifications at C4), on mouse P23H-opsin mutant (modifications of the furan-2(5H)-one ring) and on mouse P23H-opsin mutant (more than one site modified) was 248% in each case. Moreover, the “time to maximum activity” value on mouse P23H-opsin mutant (time course, Fig. 1f) was not above 15 h. Besides, at mouse P23H opsin (Fig. 2j), the “A1 (low plateau), Opsin INT” value is listed as 218. At mouse P23H opsin (Fig. 2j), the “A2 (high plateau), Opsin INT” value came to 270. The “A1 (low plateau), Opsin ratio PM-to-total” value on mouse P23H opsin (Fig. 2l) is recorded as 0.172. Also, the “A2 (high plateau), Opsin ratio PM-to-total” value on mouse P23H opsin (Fig. 2l) worked out at 0.202. For the same molecule, the “A1 (low plateau), Opsin ratio ER-to-total” value at mouse P23H opsin (Fig. 2n) was 0.236. Besides, the “A2 (high plateau), Opsin ratio ER-to-total” value on mouse P23H opsin (Fig. 2n) turned out to be 0.248. Moreover, the “Immunostaining HCS MEM-Total ratio Max (fit)” value at mouse P23H opsin (setting [3]) stood at 0.030. In the data set with NIH3T3 cells (up to 40 µM), the “effect on cell number” value was “did not affect cell number”.
